# Results published in patent US20090181948A1, “DIAMINE DERIVATIVE” (KYOWA HAKKO KOGYO CO., LTD., priority 2005, published 2009).
# Assays:
# [1] = molecular target: T1, histamine H3 receptor (Rattus norvegicus, UniProt Q9QYN8); experiment: Histamine H3 receptor binding assay ([3H]-Nα-methylhistamine binding to rat striatum homogenate); details: 1 μmol/L test compound; [3H]-Nα-methylhistamine 1 nmol/L; striata of Sprague-Dawley male rats, 25° C., 1 hour; read-out: Inhibition ratio of [3H]-Nα-methylhistamine binding
# T1 construct: from tissue; host or cells: rat striatum (Sprague-Dawley, male, 6 weeks), membrane homogenate
# T1 sequence (Q9QYN8 whole entry): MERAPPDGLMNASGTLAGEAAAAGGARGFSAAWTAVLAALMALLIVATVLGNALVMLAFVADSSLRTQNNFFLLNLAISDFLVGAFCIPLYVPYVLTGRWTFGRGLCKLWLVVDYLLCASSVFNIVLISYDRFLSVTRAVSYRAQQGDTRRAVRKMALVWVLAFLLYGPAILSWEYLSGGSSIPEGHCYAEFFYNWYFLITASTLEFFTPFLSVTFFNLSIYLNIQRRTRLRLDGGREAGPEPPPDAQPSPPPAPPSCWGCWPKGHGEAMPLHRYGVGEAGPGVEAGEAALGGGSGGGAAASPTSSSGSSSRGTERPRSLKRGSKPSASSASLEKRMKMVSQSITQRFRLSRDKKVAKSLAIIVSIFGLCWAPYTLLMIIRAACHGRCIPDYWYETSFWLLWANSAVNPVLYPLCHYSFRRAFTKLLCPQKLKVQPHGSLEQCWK
# How it was run: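 Rat striatum membranes (20 μg protein) incubated with [3H]-Nα-methylhistamine 1 nmol/L in 50 mmol/L Tris/HCl pH 7.4, 5 mmol/L EDTA, 1 hour at 25° C; bound ligand by filtration and scintillation counting. Nonspecific binding defined with 10 μmol/L thioperamide; % inhibition reported at 1 μmol/L compound.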
# [2] = molecular target: T1, histamine H3 receptor; experiment: Inhibitory effect on histamine release suppressive action of histamine H3 receptor agonist (Nα-methylhistamine) in rat forebrain synaptosomes; assay type: biochemical; details: 1 μmol/L test compound and 1 μmol/L Nα-methylhistamine, potassium 30 mmol/L stimulation, read-out: Inhibition ratio of the [3H]-histamine release suppressive action of Nα-methylhistamine
# Procedure: To the forebrains of Sprague-Dawley male rats (6 to 8 weeks of age), a 30-fold volume of a 0.32 mol/L aqueous sucrose solution was added and the forebrains were homogenized. The resulting homogenate was centrifuged (1,000×g, 4° C., 10 min), and to the obtained supernatant, an equivalent volume of Krebs-Ringer solution [120 mmol/L sodium chloride, 0.8 mmol/L potassium chloride, 2.6 mmol/L calcium chloride, 0.67 mmol/L magnesium sulfate, 1.2 mmol/L potassium dihydrogen phosphate, 27.5 mmol/L sodium bicarbonate, 10 mmol/L glucose (pH 7.3)] was added, and the resulting mixture was centrifuged (10,000×g, 4° C., 15 min). To the obtained precipitate, a 15-fold volume of Krebs-Ringer solution was added to suspend the precipitate. Then, the concentration of protein in the resulting tissue homogenate (synaptosomes) was measured and used for a test.
# To the synaptosomes (300 μg in terms of protein amount) prepared by the above-described method, a [^3H]-histidine solution [final concentration: […] (740 kBq)/mL]: 6 μl of a 37 MBq/mL (specific activity: […]) solution] was added, and the total volume was adjusted to 300 μL with Krebs-Ringer solution. Then, the resulting mixture was incubated at 37° C. for 30 minutes and centrifuged (10,000×g, 25° C., 3 min). To the resulting precipitate (synaptosomes), 300 μL of Krebs-Ringer solution was added, and the mixture was incubated at 37° C. for 5 minutes and centrifuged (10,000×g, 25° C., 3 min). This procedure was repeated 5 times, whereby washing of synaptosomes was carried out. The resulting synaptosomes were suspended in 100 μL of Krebs-Ringer solution, and the resulting suspension was used for the following procedure.
# A test compound and N^α-methylhistamine were separately dissolved in Krebs-Ringer solution to give a concentration of 20 μmol/L (the resulting mixtures were referred to as a test compound solution and a N^α-methylhistamine solution, respectively). To 100 μL of the above-described suspended synaptosomes (300 μg in terms of protein amount), 140 μL of Krebs-Ringer solution was added. Then, 30 μL of the test compound solution and 30 μL of the N^α-methylhistamine solution were added thereto, and the resulting mixture was incubated at 37° C. for 2 minutes. Then, an equivalent volume of a stimulating solution [64 mmol/L sodium chloride, 56.8 mmol/L potassium chloride, 2.6 mmol/L calcium chloride, 0.67 mmol/L magnesium sulfate, 1.2 mmol/L potassium dihydrogen phosphate, 27.5 mmol/L sodium bicarbonate, 10 mmol/L glucose (pH 7.3)] (final potassium concentration: 30 mmol/L) was added, and the resulting mixture was incubated at 37° C. for 2 minutes to release [^3H]-histamine. The reaction mixture was centrifuged (10,000×g, 25° C., 3 min), and the obtained supernatant was passed through Amberlite CG-50 column (250 μL), and the non-adsorbed fractions were discarded. Then, 2 mL of 50 mmol/L [[…]]/hydrochloric acid (HCl) (pH 7.5) (Tris) was passed through the column 3 times, and 2 mL of distilled water, and 1.5 mL of a 0.2 mol/L aqueous sodium hydroxide solution were passed through the column in this order, and the eluted fractions were discarded. Then, 2 mL of a 0.2 mol/L aqueous sodium hydroxide solution was passed through the column, and the eluted fraction was recovered in a scintillation vial. Then, 8 mL of Ultimagold (Perkin Elmer) was added to the recovered eluted solution, and the radioactivity ([^3H]-histamine) was measured using a liquid scintillation counter. The inhibitory action of the test compound on the histamine release suppressive action of N^α-methylhistamine was evaluated by obtaining the inhibition ratio to the histamine release suppressive action in the presence of 1 μmol/L No-methylhistamine and 1 μmol/L of the test compound. The inhibition ratio of the [^3H]-histamine release suppressive action was calculated using the following Equation (2). […]
inhibition at 1 µM [1] [%],inhibition at 1 µM [2] [%],melting point [°C],SMILES
≥ 80,≥ 70,–,"CC1CCCN1CCN1CCN(CCN2CCCC2C)C1=C(C#N)C#N (stereo not shown) [Compound 6, {1,3-Bis[2-(2-methylpyrrolidin-1-yl)ethyl]imidazolidin-2-ylidene}malononitrile]"
≥ 80,≥ 70,–,"N#CC(C#N)=C1N(CCCCN2CCCCC2)CCN1CCN1CCCCC1 [Compound 7, [1-(4-Piperidinobutyl)-3-(2-piperidinoethyl)imidazolidin-2-ylidene]malononitrile]"
≥ 80,≥ 70,–,"N#CC(C#N)=C1N(CCCN2CCCCC2)CCN1CCN1CCCCC1 [Compound 10, [1-(2-Piperidinoethyl)-3-(3-piperidinopropyl)imidazolidin-2-ylidene]malononitrile]"
≥ 80,≥ 70,–,"N#CC(C#N)=C1N(CCCN2CCCCC2)CCN1CCN1CCCCCC1 [Compound 47, {1-[2-(Azepan-1-yl)ethyl]-3-(3-piperidinopropyl)imidazolidin-2-ylidene}malononitrile]"
≥ 80,≥ 70,–,"C[C@@H]1CCC[C@H](C)N1CCN1CCN(CCCN2CCCCC2)C1=C(C#N)C#N [Compound 51, {1-[2-(Cis-2,6-dimethylpiperidino)ethyl]-3-(3-piperidinopropyl)imidazolidin-2-ylidene}malononitrile]"
≥ 80,≥ 70,–,"N#CC(C#N)=C1N(CCCN2CCCCC2)CCN1CCCN1CCCCC1 [Compound 64, [1,3-Bis(3-piperidinopropyl)imidazolidin-2-ylidene]malononitrile]"
≥ 80,≥ 70,–,"CC1CCCN1CCCN1CCN(CCCN2CCCCCC2)C1=C(C#N)C#N (stereo not shown) [Compound 71, {1-[3-(Azepan-1-yl)propyl]-3-[3-(2-methylpyrrolidin-1-yl)propyl]imidazolidin-2-ylidene}malononitrile]"
≥ 80,≥ 70,–,"CC1CCCN1CCCN1CCN(CCCN2CCCCC2)C1=C(C#N)C#N (stereo not shown) [Compound 103, {1-[3-(2-Methylpyrrolidin-1-yl)propyl]-3-(3-piperidinopropyl)imidazolidin-2-ylidene}malononitrile]"
≥ 80,≥ 70,–,"CC1CCCCN1CCCN1CCN(CCCN2CCCC2C)C1=C(C#N)C#N (stereo not shown) [Compound 111, {1-[3-(2-Methylpiperidino)propyl]-3-[3-(2-methylpyrrolidin-1-yl)propyl]imidazolidin-2-ylidene}malononitrile]"
≥ 80,≥ 70,–,"N#CC(C#N)=C1N(CCCN2CCCCC2)CCCN1CCCN1CCCCC1 [Compound 122, [1,3-Bis(3-piperidinopropyl)hexahydropyrimidin-2-ylidene]malononitrile]"
≥ 80,≥ 70,–,"CC1CCCN1CCCN1C(=C(C#N)C#N)N(CCCN2CCCC2C)c2ccccc21 (stereo not shown) [Compound 124, {1,3-Bis[3-(2-methylpyrrolidin-1-yl)propyl]benzimidazolidin-2-ylidene}malononitrile]"
≥ 80,–,114 to 116,"N#CC(C#N)=C(NCCCN1CCCCC1)N1CCC(N2CCCC2)CC1 [Compound 158, {(3-Piperidinopropylamino)[4-(pyrrolidin-1-yl)piperidino]methylene}malononitrile]"
≥ 80,–,94 to 96,"CCN(CCCN1CCCCC1)C(=C(C#N)C#N)N1CCC(N2CCCCC2)CC1 [Compound 162, {[N-ethyl-N-(3-piperidinopropyl)amino](4-piperidinopiperidino)methylene}malononitrile]"
≥ 80,–,83 to 84,"CC1CCCN1C1CCN(C(NCCCN2CCCCC2)=C(C#N)C#N)CC1 (stereo not shown) [Compound 163, {[4-(2-Methylpyrrolidin-1-yl)piperidino](3-piperidinopropylamino)methylene}malononitrile]"
≥ 80,–,197 to 198,"CC(C)N1CCC(N(C)C(=C(C#N)C#N)N2CCC(CN3CCCCC3)CC2)CC1 [Compound 179, {[N-(1-isopropylpiperidin-4-yl)-N-methylamino](4-piperidinomethylpiperidino)methylene}malononitrile]"
≥ 80,–,74 to 76,"C[C@@H]1CCCN1CCCN1CCN(CCN2CCCCC2)C1=C(C#N)C#N [Compound 194, {1-[3-((R)-2-methylpyrrolidin-1-yl)propyl]-3-(2-piperidinoethyl)imidazolidin-2-ylidene}malononitrile]"
≥ 80,–,70 to 71,"C[C@H]1CCCN1CCCN1CCN(CCN2CCCCC2)C1=C(C#N)C#N [Compound 195, {1-[3-((S)-2-methylpyrrolidin-1-yl)propyl]-3-(2-piperidinoethyl)imidazolidin-2-ylidene}malononitrile]"
≥ 80,–,94 to 95,"C[C@@H]1CCCN1CCN1CCN(CCCN2CCC[C@@H]2C)C1=C(C#N)C#N [Compound 196, {3-[2-((R)-2-methylpyrrolidin-1-yl)ethyl]-1-[3-((S)-2-methylpyrrolidin-1-yl)propyl]imidazolidin-2-ylidene}malononitrile]"
≥ 80,–,93 to 94,"C[C@@H]1CCCN1CCCN1CCN(CCN2CCC[C@@H]2C)C1=C(C#N)C#N [Compound 197, {3-[2-((S)-2-methylpyrrolidin-1-yl)ethyl]-1-[3-((R)-2-methylpyrrolidin-1-yl)propyl]imidazolidin-2-ylidene}malononitrile]"
≥ 80,–,88 to 89,"CC1CCCCN1CCN1CCN(CCCN2CCC[C@@H]2C)C1=C(C#N)C#N (stereo partly drawn) [Compound 198, {3-[2-(2-Methylpiperidino)ethyl]-1-[3-((S)-2-methylpyrrolidin-1-yl)propyl]imidazolidin-2-ylidene}malononitrile]"
≥ 80,–,85 to 86,"CC1CCCN1CCCN1C(=C(C#N)C#N)N(CCN2CCCCC2)c2ccccc21 (stereo not shown) [Compound 200, {1-[3-(2-Methylpyrrolidin-1-yl)propyl]-3-(2-piperidinoethyl)benzimidazolidin-2-ylidene}malononitrile]"
≥ 80,–,72 to 73,"C[C@H]1CCCN1CCCN1CCN(CCCN2CCOCC2)C1=C(C#N)C#N [Compound 201, {3-(3-Morpholinopropyl)-1-[3-((S)-2-methylpyrrolidin-1-yl)propyl]imidazolidin-2-ylidene}malononitrile]"
≥ 80,–,112 to 115,"C#CC(C)(C)N1CCC(N2CCN(CCCN3CCCCC3)C2=C(C#N)C#N)CC1 [Compound 228, {1-[1-(1,1-Dimethyl-2-propynyl)piperidin-4-yl]-3-(3-piperidinopropyl)imidazolidin-2-ylidene}malononitrile]"
